Among the data in patent US20120208809A1, “9H-PYRROLO[2,3-B: 5,4-C'] DIPYRIDINE AZACARBOLINE DERIVATIVES, PREPARATION THEREOF, AND THERAPEUTIC USE THEREOF” (SANOFI, priority 2009, published 2012) are IC50 values, retold here.

Where only a bound is given, the exact number is not on record here.

Test [1] has as its target T1, Pim-3 (Homo sapiens, UniProt Q86V86).
T1 construct: full-length human recombinant His6-labelled Pim-1, Pim-2 or Pim-3 protein; His6; made in house
Nature of the test: TR-FRET assay of Pim kinase activity (phosphorylation of Bad Ser112), Pim-3. It counts as biochemical. The conditions noted are these: ATP 40 μM, read-out: IC50 Pim3. The procedure: (§1) In order to determine the inhibition of Pim kinase activity, the compounds of the invention are tested in accordance with a routinely-used in-vitro TR-FRET assay (“Time Resolved-Fluorescence Resonance Energy Transfer”). […] For the assay, the following reagents are used:
(§2) Pim kinase—full-length human recombinant His6-labelled Pim-1, Pim-2 or Pim-3 protein (prepared according to J. Mol. Biol. (2005) 348, 183-193); Bad—full-length human recombinant His6-labelled Bad protein (prepared according to J. Mol. Biol. (2005) 348, 183-193); α-His6-APC—mouse monoclonal antibody conjugated to allophycocyanine SureLight™ directed against the His6 label (Perkin-Elmer, No. AD0059H, Waltham, Mass., United States); α-P˜Bad-Eu—mouse monoclonal antibody (Cell Signaling Technology #9296B, Danvers, Mass., United States) directed against phosphoBad (Ser112) (7E11) labelled on request by Perkin-Elmer with the reagent LANCE™ Eu-W1024.
(§3) The assay is based on the LANCE™ technology from Perkin-Elmer: the Eu-labelled antibody binds to phospho-Ser112 and generates a TR-FRET signal by interaction with the […] antibody directed against His6, bound to the His6 label of Bad. The TR-FRET signal is detected using a SpectraMax M5 plate reader (Molecular Devices) with the following settings: λex=340 nm, λem1=615 nm, λem2=665 nm. The ratio of the fluorescence signal at 665 nm to the fluorescence signal at 615 nm is used as the signal reading for the IC50 (calculations based on the 4-parameter logistic model). The assay is performed in 384-well format; the liquid manipulations are performed using a Beckmann 3000 liquid manipulation station. The test compounds are tested at 10 concentration points in duplicate; the highest concentration of compound is typically equal to 30 μM. The ATP concentration is equal to 40 μM.

The target in test [2] is PLK1 (Homo sapiens, UniProt P53350). Briefly: Biochemical results, IC50 PLK1.
Chain of PLK1 (P53350 whole entry, species assumed): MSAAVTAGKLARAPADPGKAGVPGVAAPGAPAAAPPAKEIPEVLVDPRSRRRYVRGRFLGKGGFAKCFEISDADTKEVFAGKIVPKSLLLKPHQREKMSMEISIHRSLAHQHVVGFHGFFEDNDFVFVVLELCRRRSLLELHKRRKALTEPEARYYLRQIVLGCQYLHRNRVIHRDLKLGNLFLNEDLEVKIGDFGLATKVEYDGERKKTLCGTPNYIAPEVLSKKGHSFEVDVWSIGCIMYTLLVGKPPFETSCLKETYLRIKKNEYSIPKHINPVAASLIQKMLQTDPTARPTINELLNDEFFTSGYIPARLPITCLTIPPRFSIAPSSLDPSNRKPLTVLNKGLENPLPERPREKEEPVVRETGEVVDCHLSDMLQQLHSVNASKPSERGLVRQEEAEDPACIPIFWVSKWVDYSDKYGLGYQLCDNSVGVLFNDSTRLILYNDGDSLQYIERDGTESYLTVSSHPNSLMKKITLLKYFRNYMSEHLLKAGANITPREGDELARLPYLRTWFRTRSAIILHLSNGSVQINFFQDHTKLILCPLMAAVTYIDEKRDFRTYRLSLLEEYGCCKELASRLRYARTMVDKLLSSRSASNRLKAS
Test [3] has as its target T2, Pim-1 (Homo sapiens, UniProt P11309).
T2 construct: full-length human recombinant His6-labelled Pim-1, Pim-2 or Pim-3 protein; His6; made in house
Nature of the test: TR-FRET assay of Pim kinase activity (phosphorylation of Bad Ser112), Pim-1. It counts as biochemical. The conditions noted are these: ATP 40 μM, read-out: IC50 Pim1. The procedure:
as §1, §2, §3

The target in test [4] is CDK1 (Homo sapiens, UniProt P06493). Nature of the test: Biochemical results, IC50 CDK1.
Chain of CDK1 (P06493 whole entry, species assumed): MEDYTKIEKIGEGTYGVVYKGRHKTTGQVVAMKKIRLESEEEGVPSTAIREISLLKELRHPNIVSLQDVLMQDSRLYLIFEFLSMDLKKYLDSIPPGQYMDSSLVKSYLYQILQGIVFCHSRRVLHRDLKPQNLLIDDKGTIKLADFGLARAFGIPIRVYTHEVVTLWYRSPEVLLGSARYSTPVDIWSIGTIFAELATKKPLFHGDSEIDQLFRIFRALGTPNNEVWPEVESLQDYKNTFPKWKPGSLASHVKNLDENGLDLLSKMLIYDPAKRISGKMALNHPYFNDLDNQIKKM
Chain of CDK1 (P14635 whole entry partner, species assumed): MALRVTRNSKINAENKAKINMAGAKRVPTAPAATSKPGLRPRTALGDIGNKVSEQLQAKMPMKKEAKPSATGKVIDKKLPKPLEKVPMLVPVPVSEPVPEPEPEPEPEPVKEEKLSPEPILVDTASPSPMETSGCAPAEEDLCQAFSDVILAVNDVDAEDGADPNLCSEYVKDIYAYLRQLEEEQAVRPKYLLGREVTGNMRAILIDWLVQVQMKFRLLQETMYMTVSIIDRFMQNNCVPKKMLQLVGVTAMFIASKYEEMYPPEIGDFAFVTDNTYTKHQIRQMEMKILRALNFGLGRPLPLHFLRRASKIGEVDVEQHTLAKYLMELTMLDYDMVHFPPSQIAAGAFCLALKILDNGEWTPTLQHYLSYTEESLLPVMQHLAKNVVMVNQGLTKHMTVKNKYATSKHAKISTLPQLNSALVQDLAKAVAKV
Test [5] addresses T3, Pim-2 (Homo sapiens, UniProt Q9P1W9).
T3 construct: full-length human recombinant His6-labelled Pim-1, Pim-2 or Pim-3 protein; His6; made in house
Briefly: TR-FRET assay of Pim kinase activity (phosphorylation of Bad Ser112), Pim-2. Particulars: ATP 40 μM, read-out: IC50 Pim2. It counts as biochemical. The procedure: as §1, §2, §3

T3 sequence (Q9P1W9 whole entry): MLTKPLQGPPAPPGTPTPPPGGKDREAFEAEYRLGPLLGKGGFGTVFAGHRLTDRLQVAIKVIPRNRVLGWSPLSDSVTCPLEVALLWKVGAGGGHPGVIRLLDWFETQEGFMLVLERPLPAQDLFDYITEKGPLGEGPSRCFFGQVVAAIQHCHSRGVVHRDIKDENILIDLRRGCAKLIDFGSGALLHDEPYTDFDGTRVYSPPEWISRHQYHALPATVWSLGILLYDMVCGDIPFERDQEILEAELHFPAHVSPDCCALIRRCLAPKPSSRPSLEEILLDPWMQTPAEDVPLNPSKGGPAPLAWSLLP
T2 sequence (P11309 whole entry): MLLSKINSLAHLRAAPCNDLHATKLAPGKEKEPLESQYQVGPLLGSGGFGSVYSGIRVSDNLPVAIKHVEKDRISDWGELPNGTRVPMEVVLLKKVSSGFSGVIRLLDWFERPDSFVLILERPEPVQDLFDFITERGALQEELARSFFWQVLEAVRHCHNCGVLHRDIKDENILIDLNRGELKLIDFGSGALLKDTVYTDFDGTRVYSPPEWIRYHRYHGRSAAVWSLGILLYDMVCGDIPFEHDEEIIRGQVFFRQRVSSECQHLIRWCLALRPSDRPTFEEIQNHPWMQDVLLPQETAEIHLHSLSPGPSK

As for `CN1CC2CCN(C(=O)c3ccc(-c4c(F)cnc5[nH]c6cnc(-c7cccnc7)cc6c45)cc3)CC2C1` (centres unmarked) [Example 74, {4-[3-fluoro-6-(pyridin-3-yl)-9H-pyrrolo[2,3-b:5,4-c′]dipyridin-4-yl]phenyl}(2-methyloctahydro-5H-pyrrolo[3,4-c]pyridin-5-yl)methanone], the IC50 in test [1] was less than 100 nM; in test [2] it was 100 to 1000 nM; in test [3], less than 100 nM; in test [4], 1000 to 5000 nM; in test [5] it was 100 to 1000 nM.
Regarding `CC(N)(CNC(=O)c1ccc(-c2c(F)cnc3[nH]c4cnc(-c5cccnc5)cc4c23)cc1)C(F)(F)F` (centres unmarked) [Example 91, N-(2-amino-3,3,3-trifluoro-2-methylpropyl)-4-[3-fluoro-6-(pyridin-3-yl)-9H-pyrrolo[2,3-b:5,4-c′]dipyridin-4-yl]benzamide], the concentration for half-maximal inhibition (IC50) in test [1] was in the range of 100 to 1000 nM; in test [2] it was 100 to 1000 nM; in test [3], 100 to 1000 nM; in test [4], 100 to 1000 nM; in test [5] it was 1000 to 5000 nM.
Regarding `CN1CCC2(CCN(C(=O)c3ccc(-c4c(F)cnc5[nH]c6cnc(-c7cccnc7)cc6c45)cc3)C2)C1` (centres unmarked) [Example 77, {4-[3-fluoro-6-(pyridin-3-yl)-9H-pyrrolo[2,3-b:5,4-c′]dipyridin-4-yl]phenyl}(7-methyl-2,7-diazaspiro[4.4]non-2-yl)methanone], the IC50 in test [1] was less than 100 nM; in test [2] it was 1000 to 5000 nM; in test [3], less than 100 nM; in test [4], 1000 to 5000 nM; in test [5], 1000 to 5000 nM.
For the compound `O=C(NCCCN1CCCC1=O)c1ccc(-c2c(F)cnc3[nH]c4cnc(-c5cccnc5)cc4c23)cc1` [Example 49, 4-[3-fiuoro-6-(pyridin-3-yl)-9H-pyrrolo[2,3-b:5,4-c′]dipyridin-4-yl]-N-[3-(2-oxopyrrolidin-1-yl)propyl]benzamide], the IC50 in test [1] is 100 to 1000 nM; in test [2] it was 100 to 1000 nM; in test [3] it was 100 to 1000 nM; in test [4], 1000 to 5000 nM; in test [5] it was more than 5000 nM.
In the case of `CN(C)[C@H]1CCN(C(=O)c2ccc(-c3c(F)cnc4[nH]c5cnc(-c6cccnc6)cc5c34)cc2)C1` [Example 69, [(3S)-3-(dimethylamino)pyrrolidin-1-yl]{4-[3-fluoro-6-(pyridin-3-yl)-9H-pyrrolo[2,3-b:5,4-c′]dipyridin-4-yl]phenyl}methanone], the IC50 was less than 100 nM in test [1]; 100 to 1000 nM in test [2]; less than 100 nM in test [3]; 100 to 1000 nM in test [4]; 100 to 1000 nM in test [5].
As for `O=C(NCc1ccnc(O)c1)c1ccc(-c2c(F)cnc3[nH]c4cnc(-c5cccnc5)cc4c23)cc1` [Example 82, 4-[3-fluoro-6-(pyridin-3-yl)-9H-pyrrolo[2,3-b:5,4-c′]dipyridin-4-yl]-N-[(2-hydroxypyridin-4-yl)methyl]benzamide], the IC50 in test [1] was less than 100 nM; in test [2] it was 100 to 1000 nM; in test [3] it was less than 100 nM; in test [4], 100 to 1000 nM; in test [5], 100 to 1000 nM.
With `CC(=O)NCCNC(=O)c1ccc(-c2c(F)cnc3[nH]c4cnc(-c5cccnc5)cc4c23)cc1` [Example 48, N-[2-(acetylamino)ethyl]-4-[3-fluoro-6-(pyridin-3-yl)-9H-pyrrolo[2,3-b:5,4-c′]dipyridin-4-yl]benzamide], the IC50 was 100 to 1000 nM in test [1]; less than 100 nM in test [2]; less than 100 nM in test [3]; 100 to 1000 nM in test [4]; 1000 to 5000 nM in test [5].
Regarding `N[C@H]1CCCC[C@@H]1NC(=O)c1ccc(-c2c(F)cnc3[nH]c4cnc(-c5cccnc5)cc4c23)cc1` [Example 84, N-[(1S,2S)-2-aminocyclohexyl]-4-[3-fluoro-6-(pyridin-3-yl)-9H-pyrrolo[2,3-b:5,4-c′]dipyridin-4-yl]benzamide], the IC50 in test [1] was less than 100 nM; in test [2], 100 to 1000 nM; in test [3], less than 100 nM; in test [4] it was 100 to 1000 nM; in test [5], less than 100 nM.
On to `O=C(NCc1nnn[nH]1)c1ccc(-c2c(F)cnc3[nH]c4cnc(-c5cccnc5)cc4c23)cc1` [Example 45, 4-[3-fluoro-6-(pyridin-3-yl)-9H-pyrrolo[2,3-b:5,4-c′]dipyridin-4-yl]-N-(1H-tetrazol-5-ylmethyl)benzamide], for which the concentration for half-maximal inhibition (IC50) in test [1] is 100 to 1000 nM; in test [2], less than 100 nM; in test [3], 100 to 1000 nM; in test [4] it was 100 to 1000 nM; in test [5] it was more than 5000 nM.
On to `COCCN1CCN(C(=O)c2ccc(-c3c(F)cnc4[nH]c5cnc(-c6cccnc6)cc5c34)cc2)CC1` [Example 72, {4-[3-fluoro-6-(pyridin-3-yl)-9H-pyrrolo[2,3-b:5,4-c′]dipyridin-4-yl]phenyl}[4-(2-methoxyethyl)piperazin-1-yl]methanone], for which the IC50 in test [1] was 100 to 1000 nM; in test [2], 100 to 1000 nM; in test [3], 100 to 1000 nM; in test [4], 1000 to 5000 nM; in test [5], more than 5000 nM.
Regarding `CN(C)C1CCCN(C(=O)c2ccc(-c3c(F)cnc4[nH]c5cnc(-c6cccnc6)cc5c34)cc2)C1` (centres unmarked) [Example 57, [3-(dimethylamino)piperidin-1-yl]{4-[3-fluoro-6-(pyridin-3-yl)-9H-pyrrolo[2,3-b:5,4-c′]dipyridin-4-yl]phenyl}methanone], the IC50 in test [1] was less than 100 nM; in test [2], 100 to 1000 nM; in test [3], less than 100 nM; in test [4] it was 100 to 1000 nM; in test [5], 1000 to 5000 nM.
For the compound `O=C(NCCN1CCCCCC1)c1ccc(-c2c(F)cnc3[nH]c4cnc(-c5cccnc5)cc4c23)cc1` [Example 60, N-[2-(azepan-1-yl)ethyl]-4-[3-fluoro-6-(pyridin-3-yl)-9H-pyrrolo[2,3-b:5,4-c′]dipyridin-4-yl]benzamide], the IC50 was less than 100 nM in test [1]; 100 to 1000 nM in test [2]; less than 100 nM in test [3]; 100 to 1000 nM in test [4]; 100 to 1000 nM in test [5].
On to `CCN(CC1CCN(C)C1)C(=O)c1ccc(-c2c(F)cnc3[nH]c4cnc(-c5cccnc5)cc4c23)cc1` (centres unmarked) [Example 79, N-ethyl-4-[3-fluoro-6-(pyridin-3-yl)-9H-pyrrolo[2,3-b:5,4-c′]dipyridin-4-yl]-N-[(1-methylpyrrolidin-3-yl)methyl]benzamide], for which the IC50 in test [1] is less than 100 nM; in test [2], 100 to 1000 nM; in test [3], less than 100 nM; in test [4], 1000 to 5000 nM; in test [5], 100 to 1000 nM.
